Data reported in US5914319A, “Antithrombotic agents” (Eli Lilly and Company, priority 1995, dated 1999).
Where a name gives a salt, the structure may show the parent alone.

How the values were obtained:
Format in all cases: biochemical
Human plasma [1] = experiment: Human plasma anticoagulation, thrombin time (TT); conditions: concentration required to double the thrombin time, linear extrapolation
Protocol: (§1) Dog plasma and rat plasma is obtained from conscious mixed-breed hounds (either sex, Hazelton-LRE, Kalamazoo, Mich., U.S.A.) or from anesthetized male Sprague-Dawley rats (Harlan Sprague-Dawley, Inc., Indianapolis, Ind., U.S.A.) by venipuncture into 3.8 percent citrate. Fibrinogen is prepared from in-date ACD human blood as the fraction I-2 according to previous procedures and specifications. […] Human fibrinogen is also purchased as 98 percent pure/plasmin free from American Diagnostica, Greenwich, Conn. Coagulation reagents ACTIN, Thromboplastin, and Human plasma are from Baxter Healthcare Corp., Dade Division, Miami, Fla. Bovine thrombin from Parke-Davis ([…], Mich.) is used for coagulation assays in plasma.
(§2) Coagulation assay procedures are as previously described. […] A CoAScreener coagulation instrument (American LABor, Inc.) is used for all coagulation assay measurements. The prothrombin time (PT) is measured by adding 0.05 mL saline and 0.05 mL Thromboplastin-C reagent to 0.05 mL test plasma. The activated partial thromboplastin time (APTT) is measured by incubation of 0.05 mL test plasma with 0.05 mL Actin reagent for 120 seconds followed by 0.05 mL CaCl2 (0.02M). The thrombin time (TT) is measured by adding 0.05 mL saline and 0.05 mL thrombin (10 NIH units/mL) to 0.05 mL test plasma. The compounds of Formula I are added to human or animal plasma over a wide range of concentrations to determine prolongation effects on the APTT, PT, and TT assays. Linear extrapolations are performed to estimate the concentrations required to double the clotting time for each assay.

Human plasma [2] = experiment: Human plasma anticoagulation, prothrombin time (PT); conditions: concentration required to double the PT, linear extrapolation
Protocol: as §1, §2

Human plasma [3] = experiment: Human plasma anticoagulation, activated partial thromboplastin time (APTT); conditions: concentration required to double the APTT, linear extrapolation
Protocol: as §1, §2

| Compound | Human Plasma Anticoagulation 2× Clotting time (ng/mL) TT (Human plasma [1]) | Human Plasma Anticoagulation 2× Clotting time (ng/mL) PT (Human plasma [2]) | Human Plasma Anticoagulation 2× Clotting time (ng/mL) APTT (Human plasma [3]) |
| --- | --- | --- | --- |
| Cl.N=C(N)c1ccc(CCCNC(=O)C2CCCN2C(=O)C2NCCC3CCCCC32)cc1 (stereo not drawn) [Example 32, 1-Piq-Pro-p-NHCH2 CH2 CH2 --C6 H4 C(=NH)NH2.HCl] | 3,100 ng/mL | 47,800 ng/mL | 28,500 ng/mL |
| N=C(N)c1cccc(CCCNC(=O)[C@@H]2CCCN2C(=O)[C@@H]2NCC[C@@H]3CCCC[C@@H]32)c1 [Example 33, 1-Piq-Pro-m-NHCH2 CH2 CH2 --C6 H4 C(=NH)NH2.HCl] | 18,900 ng/mL | 70,900 ng/mL | 59,300 ng/mL |
| CCS(=O)(=O)N[C@H](Cc1ccccc1)C(=O)N1CCC[C@H]1C(=O)NCc1ccc(NC(=N)N)cc1 [Example 34, EtSO2 -D-Phe-Pro-p-NHCH2 C6 H4 NHC(NH)NH2.HCl] | 530 ng/mL | 5,500 ng/mL | 4,900 ng/mL |
| CCS(=O)(=O)N[C@H](Cc1ccccc1)C(=O)N1CCC[C@H]1C(=O)NCc1cccc(NC(=N)N)c1 [Example 36, EtSO2 -D-Phe-Pro-m-NHCH2 C6 H4 NHC(NH)NH2.HCl] | 7,700 ng/mL | > 91,000 ng/mL | > 91,000 ng/mL |
| CCS(=O)(=O)N[C@H](Cc1ccccc1)C(=O)N1CCC[C@H]1C(=O)NCCc1cccc(N=C(N)N)c1.Cl [Example 37, EtSO2 -D-Phe-Pro-m-NHCH2 CH2 C6 H4 NHC(NH)NH2.HCl] | > 9,000 ng/mL | > 9,000 ng/mL | > 9,000 ng/mL |
| N=C(N)Nc1ccc(CNC(=O)[C@@H]2CCCN2C(=O)[C@@H]2NCC[C@@H]3CCCC[C@@H]32)cc1 [Example 38, D-1-Piq-Pro-p-NHCH2 C6 H4 NHC(NH)NH2.2HCl] | 540 ng/mL | 11,100 ng/mL | 6,100 ng/mL |
| N=C(N)Nc1ccc(CCNC(=O)[C@@H]2CCCN2C(=O)[C@@H]2NCC[C@@H]3CCCC[C@@H]32)cc1 [Example 39, D-1-Piq-Pro-p-NHCH2 CH2 C6 H4 NHC(NH)NH2.2HCl] | 5,300 ng/mL | 78,600 ng/mL | 69,200 ng/mL |
| N=C(N)Nc1cccc(CNC(=O)[C@@H]2CCCN2C(=O)[C@@H]2NCC[C@@H]3CCCC[C@@H]32)c1 [Example 40, D-1-Piq-Pro-m-NHCH2 C6 H4 NHC(NH)NH2.2HCl] | 35,100 ng/mL | > 91,000 ng/mL | > 91,000 ng/mL |
| N=C(N)Nc1cccc(CCNC(=O)[C@@H]2CCCN2C(=O)[C@@H]2NCC[C@@H]3CCCC[C@@H]32)c1 [Example 41, D-1-Piq-Pro-m-NHCH2 CH2 C6 H4 NHC(NH)NH2.2HCl] | 82,200 ng/mL | > 91,000 ng/mL | > 91,000 ng/mL |
| Cl.N=C(N)c1ccc(CNC(=O)C2CC3CCCCC3N2C(=O)C(CC2CCCCC2)NCC(=O)O)cc1 [Example 49, HOOCCH2 -D-Cha-cis-Ohi-p-NHCH2 C6 H4 C(NH)NH2.HCl] | 5 ng/mL | 130 ng/mL | 130 ng/mL |
| Cl.Cl.N=C(N)c1ccc(CNC(=O)[C@@H]2CCCN2C(=O)[C@H](N)CC2CCCCC2)cc1 [Example 51, D-Cha-Pro-p-NHCH2 C6 H4 C(NH)NH2.2HCl] | 2 ng/mL | 110 ng/mL | 48 ng/mL |
| Cl.N=C(N)c1ccc(CNC(=O)[C@@H]2CCCN2C(=O)[C@@H](CC2CCCCC2)NCCC(=O)O)cc1 [Example 52, HOOCCH2 CH2 -D-Cha-Pro-p-NHCH2 C6 H4 C(NH)NH2.HCl] | 6 ng/mL | 170 ng/mL | 80 ng/mL |
| O=C(O)CN[C@H](CC1CCCCC1)C(=O)N1CCC[C@H]1C(=O)NCC1CCNCC1 [Example 53, HO2 CCH2 -D-Cha-Pro-4-NHCH2 -piperidine.HCl] | 1,400 ng/mL | 34,500 ng/mL | 33,800 ng/mL |
| Cl.O=C(O)CNC(CC1CCCCC1)C(=O)N1CCCC1C(=O)NCCC1CCNCC1 [Example 54, HO2 CCH2 -D-Cha-Pro-4-NHCH2 CH2 -piperidine.HCl] | 140 ng/mL | 2,200 ng/mL | 3,300 ng/mL |
| O=C(O)CN[C@H](CC1CCCCC1)C(=O)N1CCC[C@H]1C(=O)NCCCC1CCNCC1 [Example 55, HO2 CCH2 -D-Cha-Pro-4-NHCH2 CH2 CH2 -piperidine.HCl] | 55,800 ng/mL | > 91,000 ng/mL | > 91,000 ng/mL |
| Cl.N=C(N)N1CCC(CNC(=O)[C@@H]2CCCN2C(=O)[C@@H](CC2CCCCC2)NCC(=O)O)CC1 [Example 56, HO2 CCH2 -D-Cha-Pro-4-NHCH2 -1-amidinopiperidine.HCl] | 5 ng/mL | 200 ng/mL | 160 ng/mL |
| N=C(N)N1CCC(CCNC(=O)[C@@H]2CCCN2C(=O)[C@@H](CC2CCCCC2)NCC(=O)O)CC1 [Example 57, HO2 CCH2 -D-Cha-Pro-4-NHCH2 CH2 -1-amidinopiperidine.HCl] | 14 ng/mL | 340 ng/mL | 360 ng/mL |
| Cl.O=C(O)CN[C@H](CC1CCCCC1)C(=O)N1CCC[C@H]1C(=O)NCC1=CCNCC1 [Example 58, HO2 CCH2 -D-Cha-Pro-4-NHCH2 -3,4-dehydropiperidine.HCl] | 710 ng/mL | 11,400 ng/mL | 14,300 ng/mL |
| Cl.O=C(O)CN[C@H](CC1CCCCC1)C(=O)N1CCC[C@H]1C(=O)NCCC1=CCNCC1 [Example 59, HO2 CCH2 -D-Cha-Pro-4-NHCH2 CH2 -3,4-dehydropiperidine.HCl] | 420 ng/mL | 7,000 ng/mL | 5,500 ng/mL |
| Cl.O=C(O)CN[C@H](CC1CCCCC1)C(=O)N1CCC[C@H]1C(=O)NCCCC1=CCNCC1 [Example 60, HO2 CCH2 -D-Cha-Pro-4-NHCH2 CH2 CH2 -3,4-dehydropiperidine.HCl] | 3,200 ng/mL | 77,700 ng/mL | 22,200 ng/mL |
| N=C(N)c1ccc(CNC(=O)[C@@H]2CCCN2C(=O)[C@@H](CC2CCCCC2)NCC(=O)O)nc1 [Example 66, HO2 CCH2 -D-Cha-Pro-2-NHCH2 -5-amidinopyridine.HCl] | 7.9 ng/mL | 270 ng/mL | 180 ng/mL |
| N=C(N)C1CCC(CNC(=O)[C@@H]2CCCN2C(=O)[C@@H](CC2CCCCC2)NCC(=O)O)NC1 (stereo partly drawn) [Example 67, HO2 CCH2 -D-Cha-Pro-2-NHCH2 -5-amidinopiperidine.HCl] | 34. ng/mL | 1,300 ng/mL | 1,800 ng/mL |
| Cl.N=C(N)C1=CNC(CNC(=O)[C@@H]2CCCN2C(=O)[C@@H](CC2CCCCC2)NCC(=O)O)CC1 (stereo partly drawn) [Example 68, HO2 CCH2 -D-Cha-Pro-2-NHCH2 -5-amidino-5,6-dehydro-piperidine.HCl] | 4. ng/mL | 190 ng/mL | 49 ng/mL |
| Cl.N=C(N)c1ccc(CNC(=O)[C@@H]2CCCN2C(=O)[C@@H](CC2CCCCC2)NCC(=O)O)nn1 [Example 69, HO2 CCH2 -D-Cha-Pro-3-NHCH2 -6-amidinopyridazine.HCl] | 5. ng/mL | 220 ng/mL | 110 ng/mL |
| Cl.N=C(N)N1CC=C(CNC(=O)[C@@H]2CCCN2C(=O)[C@@H](CC2CCCCC2)NCC(=O)O)CC1 [Example 70, HO2 CCH2 -D-Cha-Pro-4-NHCH2 -1-amidino-3,4-dehydro-piperidine.HCl] | 2 ng/mL | 180 ng/mL | 160 ng/mL |
